No end group written: not given here.

The target in data set [1] is KuFL (full length Ku70/Ku80) (Homo sapiens, UniProt P12956+P13010). The experiment in a line: ITC, ligand into KuFL. The class given is binding. The conditions noted are these: 25°C, pH 8.0, KuFL in cell, line 9 deduced from the first injection point.
Data set [2] relates to DSBs sites in XLF-defective BuS cells. The experiment in a line: Live cell recruitment of CFP-XLF to laser sites, BuS cells. The data set is classed as cell-based, human. The conditions noted are these: for Recruitment to laser-irradiated sites, full-length XLF: CFP-XLF in BuS cells, n=20 cells, WT vs L297W p=0.0093, WT vs L297E p<0.0001.
The subject of another data set is Ku80. The settings on record: yeast two-hybrid experiments or EMSA; cited from earlier work. (In general: Mobility shift assays separate free from complexed probe on a gel.)
Another data set concerns Ku. The conditions noted are these: fluorescence polarization with labelled peptides; cited from earlier work. (In general: Polarisation of emitted light reports the rotation of a fluorescent probe.)
Data set [3] has as its target T1, Ku70 full length;Ku80 full length (human?;human?, UniProt P12956;P13010 1-609;1-732, |). The experiment in a line: switchSENSE.
The target of data set [4] is T1, Ku70 full length;Ku80 full length. The experiment in a line: ITC. (In general: Isothermal titration calorimetry measures the heat released or taken up as one component is titrated into another.)
Data set [5] has as its target Ku70cc;Ku80cc;pXLF (long X-KBM peptide) (human?;human?;human?, UniProt P12956;P13010;Q9H9Q4 1-544;1-551;281-299, ||). Briefly: X-ray crystallography 2.8 A.
The target of data set [6] is Ku70cc;Ku80cc;pAPLF (A-KBM peptide) (human?;human?;human?, UniProt P12956;P13010;Q8IW19 1-544;1-551;174-191, ||). The experiment in a line: X-ray crystallography 3.0 A.
The target of data set [7] is Ku70cc;Ku80cc;pXLFs (short X-KBM peptide) (human?;human?;human?, UniProt P12956;P13010;Q9H9Q4 1-544;1-551;287-299, ||). Briefly: X-ray crystallography 2.9 A.
The target in data set [8] is Ku70 full length;Ku80 full length;XLF full length (human?;human?;human?, UniProt P12956;P13010;Q9H9Q4 1-609;1-732;1-299, ||). Briefly: EMSA.
Ku70 full length;Ku80 full length;XLF full length, sequence (P12956 whole entry, chain 1 of 3): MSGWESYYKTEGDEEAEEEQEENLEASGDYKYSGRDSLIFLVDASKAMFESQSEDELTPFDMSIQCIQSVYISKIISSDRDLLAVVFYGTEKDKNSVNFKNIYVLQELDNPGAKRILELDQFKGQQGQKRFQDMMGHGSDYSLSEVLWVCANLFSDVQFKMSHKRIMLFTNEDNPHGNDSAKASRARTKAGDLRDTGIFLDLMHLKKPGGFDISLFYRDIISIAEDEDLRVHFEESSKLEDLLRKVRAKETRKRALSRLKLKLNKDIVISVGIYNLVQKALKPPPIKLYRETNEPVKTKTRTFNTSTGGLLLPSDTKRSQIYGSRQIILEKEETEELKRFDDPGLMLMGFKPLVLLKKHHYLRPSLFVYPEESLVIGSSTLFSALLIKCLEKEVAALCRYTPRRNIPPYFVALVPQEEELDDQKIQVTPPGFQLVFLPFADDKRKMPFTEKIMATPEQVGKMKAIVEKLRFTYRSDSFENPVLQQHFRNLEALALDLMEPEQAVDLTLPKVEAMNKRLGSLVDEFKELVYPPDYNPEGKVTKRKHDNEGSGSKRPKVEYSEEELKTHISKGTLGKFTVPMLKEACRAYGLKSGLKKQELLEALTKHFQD
Ku70 full length;Ku80 full length;XLF full length, sequence (P13010 whole entry, chain 2 of 3): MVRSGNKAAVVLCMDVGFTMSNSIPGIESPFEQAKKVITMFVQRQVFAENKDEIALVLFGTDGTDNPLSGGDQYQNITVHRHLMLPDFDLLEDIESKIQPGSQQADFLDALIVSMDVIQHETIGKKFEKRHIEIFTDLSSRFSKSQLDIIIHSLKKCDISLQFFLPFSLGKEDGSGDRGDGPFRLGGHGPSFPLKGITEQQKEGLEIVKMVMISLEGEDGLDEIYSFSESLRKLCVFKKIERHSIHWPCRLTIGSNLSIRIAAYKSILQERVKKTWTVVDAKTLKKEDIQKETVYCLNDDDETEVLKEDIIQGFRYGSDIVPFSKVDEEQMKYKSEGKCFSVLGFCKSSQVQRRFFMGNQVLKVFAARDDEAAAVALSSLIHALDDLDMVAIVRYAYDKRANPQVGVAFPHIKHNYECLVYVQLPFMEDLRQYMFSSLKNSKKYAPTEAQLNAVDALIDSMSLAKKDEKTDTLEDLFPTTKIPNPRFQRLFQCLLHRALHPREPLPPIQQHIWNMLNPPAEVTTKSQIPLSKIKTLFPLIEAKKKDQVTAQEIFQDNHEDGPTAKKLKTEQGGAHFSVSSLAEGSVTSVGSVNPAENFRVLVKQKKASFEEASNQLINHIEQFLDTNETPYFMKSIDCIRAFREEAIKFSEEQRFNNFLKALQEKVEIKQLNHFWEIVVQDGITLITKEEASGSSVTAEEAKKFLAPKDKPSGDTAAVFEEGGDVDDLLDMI
Ku70 full length;Ku80 full length;XLF full length, sequence (Q9H9Q4 whole entry, chain 3 of 3): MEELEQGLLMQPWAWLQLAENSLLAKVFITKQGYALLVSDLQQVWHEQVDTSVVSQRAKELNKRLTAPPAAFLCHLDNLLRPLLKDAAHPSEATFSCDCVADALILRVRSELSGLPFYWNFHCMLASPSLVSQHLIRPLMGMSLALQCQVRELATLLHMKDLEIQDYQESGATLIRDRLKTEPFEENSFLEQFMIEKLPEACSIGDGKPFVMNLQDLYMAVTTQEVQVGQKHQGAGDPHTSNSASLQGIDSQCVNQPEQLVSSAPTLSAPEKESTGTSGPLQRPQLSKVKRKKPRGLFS

T1 sequence (P12956 whole entry, chain 1 of 2): as the sequence (P12956 whole entry, chain 1 of 3) above
T1 sequence (P13010 whole entry, chain 2 of 2): as the sequence (P13010 whole entry, chain 2 of 3) above
KuFL (full length Ku70/Ku80), sequence (P13010 whole entry): as the sequence (P13010 whole entry, chain 2 of 3) above
KuFL (full length Ku70/Ku80), sequence (P12956 whole entry): as the sequence (P12956 whole entry, chain 1 of 3) above
Ku70cc;Ku80cc;pXLFs (short X-KBM peptide), sequence (P12956 1-544, chain 1 of 2): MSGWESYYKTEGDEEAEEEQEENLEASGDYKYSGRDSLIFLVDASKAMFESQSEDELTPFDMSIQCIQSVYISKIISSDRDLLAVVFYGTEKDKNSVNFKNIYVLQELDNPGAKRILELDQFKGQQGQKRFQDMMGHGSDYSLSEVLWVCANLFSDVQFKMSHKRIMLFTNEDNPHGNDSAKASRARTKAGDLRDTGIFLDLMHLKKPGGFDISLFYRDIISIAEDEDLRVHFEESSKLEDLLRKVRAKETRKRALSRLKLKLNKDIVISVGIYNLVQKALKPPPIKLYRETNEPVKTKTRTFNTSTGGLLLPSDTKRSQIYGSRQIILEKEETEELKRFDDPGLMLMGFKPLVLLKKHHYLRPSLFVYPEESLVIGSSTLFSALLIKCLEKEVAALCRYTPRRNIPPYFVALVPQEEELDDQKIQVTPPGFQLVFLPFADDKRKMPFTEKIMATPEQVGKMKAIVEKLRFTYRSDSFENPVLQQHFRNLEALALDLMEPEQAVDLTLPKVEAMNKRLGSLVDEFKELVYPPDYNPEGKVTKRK
Ku70cc;Ku80cc;pXLFs (short X-KBM peptide), sequence (P13010 1-551, chain 2 of 2): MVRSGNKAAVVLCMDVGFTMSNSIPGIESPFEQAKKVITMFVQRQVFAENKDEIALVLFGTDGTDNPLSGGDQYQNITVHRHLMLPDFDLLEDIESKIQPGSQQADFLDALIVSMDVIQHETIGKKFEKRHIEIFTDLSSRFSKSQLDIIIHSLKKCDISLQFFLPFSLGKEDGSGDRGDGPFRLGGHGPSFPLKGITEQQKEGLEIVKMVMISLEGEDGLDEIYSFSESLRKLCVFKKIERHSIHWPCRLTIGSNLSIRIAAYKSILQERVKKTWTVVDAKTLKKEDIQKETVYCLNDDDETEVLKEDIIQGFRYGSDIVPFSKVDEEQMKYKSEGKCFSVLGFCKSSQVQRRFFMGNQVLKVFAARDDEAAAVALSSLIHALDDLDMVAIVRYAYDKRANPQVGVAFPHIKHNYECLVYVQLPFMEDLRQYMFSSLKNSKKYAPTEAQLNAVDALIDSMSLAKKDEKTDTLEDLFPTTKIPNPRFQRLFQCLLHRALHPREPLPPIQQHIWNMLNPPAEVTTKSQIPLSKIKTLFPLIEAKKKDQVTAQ
Ku70cc;Ku80cc;pXLF (long X-KBM peptide), sequence (P12956 1-544, chain 1 of 2): as the sequence (P12956 1-544, chain 1 of 2) above
Ku70cc;Ku80cc;pXLF (long X-KBM peptide), sequence (P13010 1-551, chain 2 of 2): as the sequence (P13010 1-551, chain 2 of 2) above
Ku70cc;Ku80cc;pAPLF (A-KBM peptide), sequence (P12956 1-544, chain 1 of 2): as the sequence (P12956 1-544, chain 1 of 2) above
Ku70cc;Ku80cc;pAPLF (A-KBM peptide), sequence (P13010 1-551, chain 2 of 2): as the sequence (P13010 1-551, chain 2 of 2) above

For the molecule LQRPQLSKVKRKKPRGWFS [pXLF(LW)], in data set [1], the ΔH was -12.1 ± 2.0 kcal/M.
For “F298G: XLF mutant in the extreme C-terminus”, the “Recruitment to laser-irradiated sites, full-length XLF” value (“Recruitment to laser-irradiated sites” below) in data set [2] is listed as “important reduction of the recruitment”.
As for “XLF L115D/L297E: XLF L115D/L297E double mutant”, the “Recruitment to laser-irradiated sites” value in data set [2] is recorded as “impaired”.
“G296W: XLF mutant in the extreme C-terminus”: the “Recruitment to laser-irradiated sites” value in [2] is on record as “important reduction of the recruitment”.
For the molecule “L115D XLF: XLF mutant unable to interact with XRCC4”, the “Recruitment to laser-irradiated sites” value in data set [2] is “efficient recruitment”. In data set [2] (CFP-XLF, APLF knock-down), the “Effect of APLF knock-down on XLF recruitment” value was “insensitive to APLF knock-down”.
Turning to APLF: APTX and PNKP-like factor, in the data set with Ku80, the “Effect of Ku80 mutations at L68, Y74, I112 on interaction with APLF” value is recorded as “greatly reduce or disrupt the interactions”.
Consider “S299E: XLF mutant in the extreme C-terminus”, for which the “Recruitment to laser-irradiated sites” value in data set [2] was “important reduction of the recruitment”.
Turning to `CC(C)C[C@H](NC(=O)CNC(=O)[C@H](CCCNC(=N)N)NC(=O)[C@@H]1CCCN1C(=O)[C@H](CCCCN)NC(=O)[C@H](CCCCN)NC(=O)[C@H](CCCNC(=N)N)NC(=O)[C@H](CCCCN)NC(=O)[C@@H](NC(=O)[C@H](CCCCN)NC(=O)[C@H](CO)NC(=O)[C@H](CC(C)C)NC(=O)[C@H](CCC(N)=O)NC(=O)[C@@H]1CCCN1C(=O)[C@H](CCCNC(=N)N)NC(=O)[C@H](CCC(N)=O)NC(=O)[C@@H](N)CC(C)C)C(C)C)C(=O)N[C@@H](Cc1ccccc1)C(=O)N[C@@H](CO)C(=O)O` [pXLF], the Interaction detected entry in the data set on Ku is recorded as “not detected”.

B1: 48bp DNA nanolever (NLB48) (dsDNA)
DNA 1: TAGTCGTAAGCTGATATGGCTGATTAGTCGGAAGCATCGAACGCTGAT
DNA 2: ATCAGCGTTCGATGCTTCCGACTAATCAGCCATATCAGCTTACGACTA
For B1, in [3], the binding result was “binds”.

B2: DNA 18bp (CN3/CN4) (dsDNA)
DNA 1: GTTATCCGAGCGTGAGAC
DNA 2: GTCTCACGCTCGGATAAC
For orientation: Kd means the constant that tells how readily two partners part at equilibrium. A high value points to lower affinity. In data set [4], B2 came in with a Kd of 4.1 ± 0.7 nM.

B3: hDNA (CN1/CN2 hairpin DNA) (structured_DNA)
DNA 1: CGCGCCCAGCTTTCCCAGCTAATAAACTAAAAAC
DNA 2: GTTTTTAGTTTATTGGGCGCG
As to B3, the binding result in data set [5], in data set [6] and in data set [7] was “binds” each time.

B4: 50bp DNA (MM 50bp up/do) (dsDNA)
DNA 1: TAAATGCCAATGCTGCTGATACGTACTCGGACTGATTCGGAACTGTAACG
DNA 2: CGTTACAGTTCCGAATCAGTCCGAGTACGTATCAGCAGCATTGGCATTTA
With B4, the binding result in [8] is reported as “binds”.

Values taken from publication PMC6234012 (Nature structural & molecular biology, 2018).
